Measured values: ChEMBL document CHEMBL1201862, “PubChem BioAssay data set” (2004)
Several values for one entry are separate records, joined by “and”; a condition that tells them apart may be missing. Equal values may be shown once.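 All cell lines were grown in 96-well plates and treated with compound for 48 hours. Abbreviation: GI50, concentration required for 50% inhibition of growth.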 Activity calls are given as the source filed them. Rule as the data show it: active = GI50 up to about 1.1 µM and inactive = higher. Residues, ends and D or L forms follow the SMILES beside them.

Tests used:
Assay in all cases: inhibition of tumour cell growth, NCI panel, 48 h
[1] = test system: 786-0
[2] = test system: HCC 2998
[3] = test system: HT-29
[4] = test system: IGROV-1
[5] = test system: K562
[6] = test system: LOX IMVI
[7] = test system: MDA-MB-231
[8] = test system: MDA-MB-435
[9] = test system: MOLT-4
[10] = test system: NCI-H226
[11] = test system: NCI-H23
[12] = test system: RXF 393
[13] = test system: SK-MEL-2
[14] = test system: SW-620
[15] = test system: UACC-62
[16] = test system: NCI-H460
[17] = test system: SR
[18] = test system: Hs-578T

Row | Structure (SMILES) | GI50 [1] | GI50 [2] | GI50 [3] | GI50 [4] | GI50 [5] | GI50 [6] | GI50 [7] | GI50 [8] | GI50 [9] | GI50 [10] | GI50 [11] | GI50 [12] | GI50 [13] | GI50 [14] | GI50 [15] | GI50 [16] | GI50 [17] | GI50 [18]
1 | O=C1C2=Cc3ccccc3OC2(O)Oc2cc(O)ccc21 (stereo not given) | > 100 µM (inactive) | > 100 µM (inactive) | > 100 µM (inactive) | > 100 µM (inactive) | > 100 µM (inactive) | > 100 µM (inactive) | > 100 µM (inactive) | > 100 µM (inactive) | > 100 µM (inactive) | > 100 µM (inactive) | > 100 µM (inactive) | > 100 µM (inactive) | > 100 µM (inactive) | > 100 µM (inactive) | > 100 µM (inactive) |  |  | 
2 | COc1cc(/C=C2\C(=O)N(c3ccc(NC(C)=O)cc3)C(c3ccccc3)S2(=O)=O)cc(OC)c1OC (stereo not given) | > 100 µM (inactive) | > 100 µM (inactive) | > 100 µM (inactive) | > 100 µM (inactive) | 39.9 µM (inactive) | > 100 µM (inactive) | > 100 µM (inactive) | 92.9 µM (inactive) | 25.1 µM (inactive) | > 100 µM (inactive) | > 100 µM (inactive) | > 100 µM (inactive) | > 100 µM (inactive) | > 100 µM (inactive) | > 100 µM (inactive) | > 100 µM (inactive) | 36.7 µM (inactive) | 
3 | CCCCC(CCCC)=NNC(=S)SC | 34.8 µM (inactive) | 15.4 µM (inactive) | 33.6 µM (inactive) |  | 29.6 µM (inactive) | 27.3 µM (inactive) | 28.3 µM (inactive) | 17.9 µM (inactive) | 18 µM (inactive) | 16.1 µM (inactive) | 33.7 µM (inactive) | 65.3 µM (inactive) | 36.4 µM (inactive) | 38.9 µM (inactive) | 22 µM (inactive) | 30.3 µM (inactive) |  | 44.2 µM (inactive)
4 | CC(NC(=O)c1ccccc1)(C(=O)O)C(=O)O | > 100 µM (inactive) |  | > 100 µM (inactive) | > 100 µM (inactive) | > 100 µM (inactive) | > 100 µM (inactive) | > 100 µM (inactive) | > 100 µM (inactive) | > 100 µM (inactive) | > 100 µM (inactive) | > 100 µM (inactive) | > 100 µM (inactive) | > 100 µM (inactive) | > 100 µM (inactive) | > 100 µM (inactive) | > 100 µM (inactive) | > 100 µM (inactive) | > 100 µM (inactive)
5 | CCOP(=O)(/C=C\n1ccc(N)nc1=O)OCC | > 100 µM (inactive) |  | > 100 µM (inactive) | > 100 µM (inactive) | > 100 µM (inactive) | > 100 µM (inactive) | > 100 µM (inactive) | > 100 µM (inactive) | > 100 µM (inactive) | > 100 µM (inactive) | > 100 µM (inactive) | > 100 µM (inactive) | > 100 µM (inactive) | > 100 µM (inactive) | > 100 µM (inactive) | > 100 µM (inactive) |  | 0.349 µM (active)
6 | CN1CCN(c2ccc([N+](=O)[O-])c3no[n+]([O-])c23)CC1 | 0.0452 µM (active) |  | 0.18 µM (active) | 0.0719 µM (active) | 0.0881 µM (active) | 0.0485 µM (active) | 1.34 µM (inactive) | 1.05 µM (active) |  | 0.604 µM (active) | < 0.0359 µM (active) | 0.122 µM (active) | 1.34 µM (inactive) | 0.0631 µM (active) | 0.769 µM (active) | 0.0334 µM (active) | < 0.01 µM (active) | 0.571 µM (active)
7 | CC(C)=C=CC(C)(C)NS(=O)(=O)NC(C)(C)C=C=C(C)C | > 100 µM (inactive) | 25.5 µM (inactive) | 75.5 µM (inactive) | > 100 µM (inactive) | 19.8 µM (inactive) | > 100 µM (inactive) |  | > 100 µM (inactive) |  | > 100 µM (inactive) | > 100 µM (inactive) |  | > 100 µM (inactive) | > 100 µM (inactive) | > 100 µM (inactive) | 80.9 µM (inactive) | 18.4 µM (inactive) | > 100 µM (inactive)
8 | C[C@H](c1ccccc1)N1C(=O)[C@@H](OCc2ccccc2)[C@H]1[C@H](COC(=O)COCc1ccccc1)OCc1ccccc1 | > 100 µM (inactive) |  |  | > 100 µM (inactive) | > 100 µM (inactive) | > 100 µM (inactive) | > 100 µM (inactive) | 54.1 µM (inactive) | 67.5 µM (inactive) | 6.95 µM (inactive) | 57.3 µM (inactive) |  | > 100 µM (inactive) | > 100 µM (inactive) | > 100 µM (inactive) |  | > 100 µM (inactive) | 60.7 µM (inactive)
9 | CCOP(=O)(OCC)C1CC(O)C(=O)N1 (stereo not given) | > 100 µM (inactive) |  | > 100 µM (inactive) | > 100 µM (inactive) | > 100 µM (inactive) | > 100 µM (inactive) | > 100 µM (inactive) | > 100 µM (inactive) | > 100 µM (inactive) | > 100 µM (inactive) | > 100 µM (inactive) |  | > 100 µM (inactive) | > 100 µM (inactive) | > 100 µM (inactive) |  | > 100 µM (inactive) | > 100 µM (inactive)
10 | O=C1/C(=N/c2ccccc2)Oc2cc(O)ccc21 | > 100 µM (inactive) | > 100 µM (inactive) | > 100 µM (inactive) | > 100 µM (inactive) | > 100 µM (inactive) | > 100 µM (inactive) | > 100 µM (inactive) | > 100 µM (inactive) | > 100 µM (inactive) | > 100 µM (inactive) | > 100 µM (inactive) | > 100 µM (inactive) | > 100 µM (inactive) | > 100 µM (inactive) | > 100 µM (inactive) | > 100 µM (inactive) | > 100 µM (inactive) | 
11 | C=C(C)CCC1CCCCC(CN(C)C)C1=O (stereo not given) | > 100 µM (inactive) |  | > 100 µM (inactive) | > 100 µM (inactive) | > 100 µM (inactive) | > 100 µM (inactive) | > 100 µM (inactive) | > 100 µM (inactive) | 31.3 µM (inactive) | > 100 µM (inactive) | > 100 µM (inactive) |  | > 100 µM (inactive) | > 100 µM (inactive) | > 100 µM (inactive) | > 100 µM (inactive) | > 100 µM (inactive) | > 100 µM (inactive)
12 | CC(=O)OCC1=C(C)C(OC(=O)C(OC(C)=O)[C@@H](NC(=O)c2ccccc2)c2ccccc2)CCC1(C)C (stereo not given in full) | > 100 µM (inactive) | > 100 µM (inactive) | > 100 µM (inactive) | > 100 µM (inactive) | > 100 µM (inactive) | > 100 µM (inactive) | > 100 µM (inactive) | > 100 µM (inactive) | > 100 µM (inactive) | > 100 µM (inactive) | > 100 µM (inactive) | > 100 µM (inactive) |  | > 100 µM (inactive) | > 100 µM (inactive) | > 100 µM (inactive) | > 100 µM (inactive) | 
13 | Cc1ccc(Cl)c2[nH]c(-c3ccccc3)cc(=O)c12 | 90.4 µM (inactive) | 93.1 µM (inactive) | 43.5 µM (inactive) | 33.7 µM (inactive) | 30.1 µM (inactive) | 22.5 µM (inactive) | 38.9 µM (inactive) | 21.1 µM (inactive) | 21.6 µM (inactive) | 31.3 µM (inactive) | 46.7 µM (inactive) | 44 µM (inactive) | 65.6 µM (inactive) | 39.2 µM (inactive) | 48.2 µM (inactive) | 37 µM (inactive) |  | 59.2 µM (inactive)
14 | CSC1=N/C(=C\c2cccs2)C(=O)N1CN1CCOCC1 | 44.5 µM (inactive) |  | 24.9 µM (inactive) | 41.5 µM (inactive) | 43.8 µM (inactive) | 33.1 µM (inactive) | 71.1 µM (inactive) | > 100 µM (inactive) | 34.1 µM (inactive) | 31.1 µM (inactive) | > 100 µM (inactive) |  | 52.4 µM (inactive) | 55 µM (inactive) | 42.4 µM (inactive) |  | 17.4 µM (inactive) | 51.6 µM (inactive)
15 | CSc1nc(C#N)c(/N=C\N(C)C)n1C | > 100 µM (inactive) |  |  | > 100 µM (inactive) | > 100 µM (inactive) | > 100 µM (inactive) | > 100 µM (inactive) | > 100 µM (inactive) | > 100 µM (inactive) | > 100 µM (inactive) | > 100 µM (inactive) | > 100 µM (inactive) | > 100 µM (inactive) | > 100 µM (inactive) | > 100 µM (inactive) | > 100 µM (inactive) | > 100 µM (inactive) | > 100 µM (inactive)
16 | N=C(N)N/N=C/c1c(-c2cc([N+](=O)[O-])c(Cl)cc2Cl)nc2sccn12 | 1.67 µM (inactive) |  |  |  | 242 nM (active) and 746 nM (active) | 130 nM (active) and 1.18 µM (inactive) | 200 nM (active) and 2.02 µM (inactive) | 332 nM (active) and 1.7 µM (inactive) | 0.124 µM (active) | 2.04 µM (inactive) | 1.56 µM (inactive) and 1.36 µM (inactive) | 1.46 µM (inactive) | 1.91 µM (inactive) and 1 µM (active) | 435 nM (active) and 1.27 µM (inactive) | 1.56 µM (inactive) and 1.94 µM (inactive) | 1.86 µM (inactive) and 1.73 µM (inactive) | 0.0368 µM (active) | 1.54 µM (inactive) and 1.53 µM (inactive)
17 | CC(=O)NC(CO)C(=O)NC(Cc1ccc(O)cc1)C(=O)NCC(N)=O (stereo not drawn) (Ac-Ser-Tyr-Gly-NH2; configuration not given here) | > 100 µM (inactive) | > 100 µM (inactive) | > 100 µM (inactive) | > 100 µM (inactive) | > 100 µM (inactive) | > 100 µM (inactive) | > 100 µM (inactive) | > 100 µM (inactive) | > 100 µM (inactive) | > 100 µM (inactive) | > 100 µM (inactive) | > 100 µM (inactive) | > 100 µM (inactive) | > 100 µM (inactive) | > 100 µM (inactive) | > 100 µM (inactive) | > 100 µM (inactive) | 
